# Measurements: patent US20100004253A1, “BIOMARKERS OF TARGET MODULATION, EFFICACY, DIAGNOSIS AND/OR PROGNOSIS FOR RAF INHIBITORS” (Novartis AG, priority 2006, published 2010)
# Legend:
# [1] = system: HT29 xenograft; assay: Mutant B-Raf xenograft model; format: in vivo
# [2] = system: A375M melanoma xenograft tumors; assay: mRNA microarray profiling of A375M xenograft tumors; format: in vivo, mice; conditions: 100 mg/kg orally every other day; 783 probesets; Table IX
# [3] = system: G361; conditions: G361, mutant B-Raf cell line
# [4] = system: MALME-3M; conditions: mutant B-Raf cell line
# [5] = system: HCT116 xenograft; assay: K-Ras driven xenograft model; format: in vivo
# Description: […]. […] […].
# [6] = system: MEK target phosphorylation and signaling molecules downstream from Raf (BIM, Cyclin D1, p27Kip, pAKT); conditions: preclinical models
# [7] = system: A375M xenograft; assay: Mutant B-Raf xenograft model; format: in vivo
# [8] = system: COLO205; conditions: COLO205, mutant B-Raf cell line
# [9] = system: SKMEL28; conditions: SKMEL28, mutant B-Raf cell line
# [10] = system: SKMEL2; conditions: SKMEL2, N-Ras cell line
# [11] = system: MEXF276 xenograft; assay: Mutant B-Raf xenograft model; format: in vivo
# [12] = system: A2058; conditions: A2058, mutant B-Raf cell line
# [13] = system: SW620; conditions: SW620, K-Ras cell line
# [14] = system: SKMEL31; conditions: SKMEL31, mutant B-Raf cell line
compound,measurement,setting,value
"Cn1c(Nc2ccc(C(F)(F)F)cc2)nc2cc(Oc3ccnc(-c4ncc(C(F)(F)F)[nH]4)c3)ccc21 [CHIR-265, {1-Methyl-5-[2-(5-trifluoromethyl-1H-imidazol-2-yl)-pyridin-4-yloxy]-1H benzoimidazol-2-yl}-(4-trifluoromethyl-phenyl)-amine]",effect on tumor,[1],tumor regression
same,"number of genes significantly differential, alternate analysis method (six queries, p<0.005)",[2],609 genes
same,inhibition of the Raf pathway,[3],inhibition of the Raf pathway
same,inhibition of the Raf pathway,[4],inhibition of the Raf pathway
same,effect on tumor,[5],tumor growth inhibition
same,inhibition of MEK target phosphorylation and signaling molecules downstream from Raf in the MAPK pathway,[6],dose and time dependent inhibition
same,effect on tumor,[7],tumor regression
same,inhibition of the Raf pathway,[8],inhibition of the Raf pathway
same,inhibition of the Raf pathway,[9],inhibition of the Raf pathway
same,inhibition of the Raf pathway,[10],inhibition of the Raf pathway
same,effect on tumor,[11],tumor regression
same,inhibition of the Raf pathway,[12],inhibition of the Raf pathway
same,inhibition of the Raf pathway,[13],inhibition of the Raf pathway
same,inhibition of the Raf pathway,[14],inhibition of the Raf pathway
